{
  "source": "patent US5556864A",
  "about": "“α-ω-diarylalkane compounds serotonin-2 receptor agonists” (Sankyo Company, Limited, priority 1992, dated 1996)",
  "key": {"adrenaline-α1 receptors": {"tested_on": "adrenaline-α1 receptors", "assay": "Vasoconstriction experiment: relaxation of rat caudal artery strips precontracted with phenylephrine", "type": "cell-based, rat (male Sprague-Dawley)", "conditions": "precontracted with phenylephrine 10^-6 M; concentration causing one half of maximum relaxation (papaverine 10^-4 M = maximum); 37 °C; read-out: IC50 adrenalin-α1", "protocol": "(§1) Vasoconstriction Experiment\n(§2) Contractions of the rat caudal ateries were investigated by the method of Van Neuten et al. (J. Pharmacol. Exp. Ther., 218, 217-230, 1981).\n(§3) Male Sprague-Dawley rats, each weighing approximately 500 g, were sacrificed by rapid exsanguination. The caudal arteries were dissected free from connective tissue and cut into spiral strips (2×20 mm). The resulting preparations were mounted in organ baths, each containing 10 ml of Tyrode solution maintained at 37° C., and then gassed with a mixture of 95% by volume O2 and 5% CO2. The preparations were allowed to equilibrate for 1 hour before being used in the experiment.\n(§4) An initial optimum resting tension of 0.5 g was applied to the preparations, and isometric contractions were recorded with force-displacement transducers. The relaxant effects of the test compounds were determined on preparations which had been precontracted with 5-HT (5-hydroxytryptamine) (3×10^-6 M), which is an agonist of the 5-HT2 receptors, or phenylephrine (10^-6 M), which is an agonist of the adrenaline-α1 receptors. After the constractile response to the 5-HT or the phenylephrine had reached a steady state, the test compound was added cumulatively to the bathing medium. At the end of the experiments, papaverine (10^-4 M) was added to produce the maximum relaxation.\n(§5) The relaxation induced by each test compound was calculated as a percentage of the maximum relaxation induced by 10^-4 M of papaverine. The concentrations causing one half of the maximum relaxation (IC50) were calculated by the method of least squares."}, "5-HT2 receptors": {"target": "T1, 5-HT2 receptors (Rattus norvegicus, UniProt P14842)", "T1 construct": "The caudal arteries were dissected free from connective tissue and cut into spiral strips; from tissue; host or cells: rat caudal artery, spiral strips", "T1 sequence (P14842 whole entry)": "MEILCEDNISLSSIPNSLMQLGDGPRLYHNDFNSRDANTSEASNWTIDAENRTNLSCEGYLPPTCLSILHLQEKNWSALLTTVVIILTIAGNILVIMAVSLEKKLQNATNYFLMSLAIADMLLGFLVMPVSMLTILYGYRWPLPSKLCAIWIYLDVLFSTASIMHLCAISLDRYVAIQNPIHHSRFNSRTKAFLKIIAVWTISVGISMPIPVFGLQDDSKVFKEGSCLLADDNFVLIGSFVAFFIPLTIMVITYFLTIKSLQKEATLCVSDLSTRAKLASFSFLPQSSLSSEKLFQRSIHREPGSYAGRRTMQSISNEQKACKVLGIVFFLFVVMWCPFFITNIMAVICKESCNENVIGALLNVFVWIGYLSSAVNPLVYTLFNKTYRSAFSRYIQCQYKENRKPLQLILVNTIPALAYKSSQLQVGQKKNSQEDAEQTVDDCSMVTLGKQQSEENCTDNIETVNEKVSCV", "assay": "Vasoconstriction experiment: relaxation of rat caudal artery strips precontracted with 5-HT", "type": "cell-based, rat (male Sprague-Dawley)", "conditions": "precontracted with 5-HT 3×10^-6 M; concentration causing one half of maximum relaxation (papaverine 10^-4 M = maximum); 37 °C", "protocol": "as §1, §2, §3, §4, §5"}},
  "note": "Where a name gives a salt, the structure may show the parent alone.",
  "data": [
    {"smiles": "COc1cccc(CCc2ccccc2OCCC2CCCCN2C)c1", "note": "(stereo not shown) [Example 48, 2-(2-{2-[2-(3-Methoxyphenyl)ethyl]phenoxy}ethyl)-1-methylpiperidine hydrochloride]", "values": [
      {"measurement": "IC50", "setting": "adrenaline-α1 receptors", "result": 2500, "unit": "nM"},
      {"measurement": "IC50", "setting": "5-HT2 receptors", "result": 3.7, "unit": "nM"}
    ]},
    {"smiles": "COc1cccc(CCc2ccccc2OCC2CCCN(C)C2)c1", "note": "(stereo not shown) [Example 50, 3-{2-[2-(3-Methoxyphenyl)ethyl]phenoxymethyl}-1-methylpiperidine hydrochloride]", "values": [
      {"measurement": "IC50", "setting": "adrenaline-α1 receptors", "result": 3700, "unit": "nM"},
      {"measurement": "IC50", "setting": "5-HT2 receptors", "result": 4.3, "unit": "nM"}
    ]},
    {"smiles": "COc1cccc(CCc2ccccc2OC[C@@H]2CCCN2C)c1", "note": "[Example 58, (S)-2-{2-[2-(3-Methoxyphenyl)ethyl]phenoxymethyl}-1-methylpyrrolidine hydrochloride]", "values": [
      {"measurement": "IC50", "setting": "adrenaline-α1 receptors", "result": 4900, "unit": "nM"},
      {"measurement": "IC50", "setting": "5-HT2 receptors", "result": 5, "unit": "nM"}
    ]},
    {"smiles": "CN1CCCC1CCOc1ccccc1CCc1ccccc1F", "note": "(stereo not shown) [Example 97, 2-(2-{2-[2-(2-Fluorophenyl)ethyl]phenoxy}ethyl)-1-methylpyrrolidine hydrochloride]", "values": [
      {"measurement": "IC50", "setting": "adrenaline-α1 receptors", "result": 860, "unit": "nM"},
      {"measurement": "IC50", "setting": "5-HT2 receptors", "result": 6.5, "unit": "nM"}
    ]},
    {"smiles": "CN1CCCC1CCOc1ccccc1CCc1cccc(Br)c1", "note": "(stereo not shown) [Example 98, 2-(2-{2-[2-(3-Bromophenyl)ethyl]phenoxy}ethyl)-1-methylpyrrolidine hydrochloride]", "values": [
      {"measurement": "IC50", "setting": "adrenaline-α1 receptors", "result": 2200, "unit": "nM"},
      {"measurement": "IC50", "setting": "5-HT2 receptors", "result": 5.4, "unit": "nM"}
    ]},
    {"smiles": "CCOc1cccc(CCc2ccccc2OCCC2CCCN2C)c1", "note": "(stereo not shown) [Example 99, 2-(2-{2-[2-(3-Ethoxyphenyl)ethyl]phenoxy}ethyl)-1-methylpyrrolidine hydrochloride]", "values": [
      {"measurement": "IC50", "setting": "adrenaline-α1 receptors", "result": 1300, "unit": "nM"},
      {"measurement": "IC50", "setting": "5-HT2 receptors", "result": 6.1, "unit": "nM"}
    ]},
    {"smiles": "CCOc1ccc(CCc2ccccc2OCCC2CCCN2C)cc1", "note": "(stereo not shown) [Example 101, 2-(2-{2-[2-(4-Ethoxyphenyl)ethyl]phenoxy}ethyl)-1-methylpyrrolidine hydrochloride]", "values": [
      {"measurement": "IC50", "setting": "adrenaline-α1 receptors", "result": 3700, "unit": "nM"},
      {"measurement": "IC50", "setting": "5-HT2 receptors", "result": 3.7, "unit": "nM"}
    ]},
    {"smiles": "CN1CCCC1CCOc1ccccc1CCc1ccccc1C#N", "note": "(stereo not shown) [Example 108, 2-(2-{2-[2-(2-Cyanophenyl)ethyl]phenoxy}ethyl)-1-methylpyrrolidine hydrochloride]", "values": [
      {"measurement": "IC50", "setting": "adrenaline-α1 receptors", "result": 1700, "unit": "nM"},
      {"measurement": "IC50", "setting": "5-HT2 receptors", "result": 2.2, "unit": "nM"}
    ]},
    {"smiles": "COc1cccc(CCc2ccccc2OCC[C@@H]2CCCN2C)c1", "note": "[Example 113, (S)-2-(2-{2-[2-(3-Methoxyphenyl)ethyl]phenoxy}ethyl)-1-methylpyrrolidine hydrochloride]", "values": [
      {"measurement": "IC50", "setting": "adrenaline-α1 receptors", "result": 1200, "unit": "nM"},
      {"measurement": "IC50", "setting": "5-HT2 receptors", "result": 2.2, "unit": "nM"}
    ]},
    {"smiles": "CN1CCC[C@H]1CCOc1ccccc1CCc1cccc(OC(F)F)c1", "note": "[Example 116, (S)-2-(2-{2-[2-(3-Difluoromethoxyphenyl)ethyl]phenoxy}ethyl)-1-methylpyrrolidine hydrochloride]", "values": [
      {"measurement": "IC50", "setting": "5-HT2 receptors", "result": 2.2, "unit": "nM"}
    ]},
    {"smiles": "COc1cc(CCc2ccccc2OCC[C@@H]2C[C@@H](O)CN2C)cc(OC)c1", "note": "[Example 118, (2R,4R)-4-hydroxy-2-(2-{2-[2-(3,5-dimethoxyphenyl)ethyl]phenoxy}ethyl)-1-methylpyrrolidine]", "values": [
      {"measurement": "IC50", "setting": "adrenaline-α1 receptors", "result": 5400, "unit": "nM"},
      {"measurement": "IC50", "setting": "5-HT2 receptors", "result": 2.6, "unit": "nM"}
    ]},
    {"smiles": "COc1cccc(CCc2ccccc2OC[C@H]2CCCNC2)c1", "note": "[Example 120, (S)-3-{2-[2-(3-Methoxyphenyl)ethyl]phenoxymethyl}piperidine hydrochloride]", "values": [
      {"measurement": "IC50", "setting": "5-HT2 receptors", "result": 4.2, "unit": "nM"}
    ]},
    {"smiles": "COc1cccc(CCc2ccccc2OC[C@H]2CCCN(C)C2)c1", "note": "[Example 121, (S)-3-{2-[2-(3-Methoxyphenyl)ethyl]phenoxymethyl}-1-methylpiperidine hydrochloride]", "values": [
      {"measurement": "IC50", "setting": "5-HT2 receptors", "result": 2.2, "unit": "nM"}
    ]},
    {"smiles": "FC(F)Oc1cccc(CCc2ccccc2OCC2CCCNC2)c1", "note": "(stereo not shown) [Example 123, 3-{2-[2-(3-Difluoromethoxyphenyl)ethyl]phenoxymethyl}piperidine hydrochloride]", "values": [
      {"measurement": "IC50", "setting": "5-HT2 receptors", "result": 5.7, "unit": "nM"}
    ]},
    {"smiles": "CN1CCCC(COc2ccccc2CCc2cccc(OC(F)F)c2)C1", "note": "(stereo not shown) [Example 124, 3-{2-[2-(3-Difluoromethoxyphenyl)ethyl]phenoxymethyl}-1-methylpiperidine hydrochloride]", "values": [
      {"measurement": "IC50", "setting": "5-HT2 receptors", "result": 4.6, "unit": "nM"}
    ]}
  ]
}
